Here are results for 2 compounds from patent publication US20200062776A1, “HEDGEHOG ACYLTRANSFERASE INHIBITORS AND USES THEREOF” (Memorial Sloan-Kettering Cancer Center, priority 2016, published 2020).

In test [1] the test system is H1703 oncospheres. As to the kind of experiment: H1703 oncosphere growth, 10 days, EZQuant. It is filed as cell-based, human. Conditions: for cell count of H1703 oncospheres: compounds replenished every 2 days. As for the experimental part:
Duplicate wells were treated with the indicated concentrations of compound for 10 days. Compounds were replenished in the media every 2 days. Cell number was quantified at Day 10 using EZQuant (Alstem).

Test [2] concerns the target Hhat (Homo sapiens, UniProt Q5VTY9). As to the kind of experiment: Hhat-mediated Shh palmitoylation in COS-1 cells transfected with Shh and Hhat ([125I]-iodopalmitate labeling). The test is classed as cell-based. On the set-up: dose or concentration left out as unconfirmed. Conditions: 4 hr labeling at 37° C. The method, then: FIGS. 1A-1B. […] FIG. 1A. COS-1 cells were transfected with cDNA plasmids encoding Shh and Hhat (see, e.g., Buglino, J. A., and Resh, M. D. “Hhat is a palmitoyl acyltransferase with specificity for N-palmitoylation of sonic hedgehog” J. Biol. Chem. 2008, 283, 22076-22088; Petrova, E., Rios-Esteves, J., Ouerfelli, O., Glickman, J. F., and Resh, M. D. “Inhibitors of Hedgehog acyltransferase block Sonic Hedgehog signaling” Nat Chem Biol 2013, 9, 247-249). 48 hours after transfection, cells were starved for 1 hour in DMEM containing 2% dialyzed fetal calf serum and then labeled for 4 hr at 37° C. with […] [^125I]-iodopalmitate in the presence of […] of the indicated compound or DMSO. Cell lysates were immunoprecipitated with anti-Shh antibody, analyzed by SDS-PAGE and dried gels were subjected to Phosphorimaging. The amount of radiolabel incorporated into Shh was quantified and compared to that obtained for DMSO (normalized to 1.0). % Inhibition=1−(signal in drug treated sample/signal in DMSO sample)×100. FIG. 1B. Structure of RU-SKI 43 (see, e.g., Petrova, E., Rios-Esteves, J., Ouerfelli, O., Glickman, J. F., and Resh, M. D. “Inhibitors of Hedgehog acyltransferase block Sonic Hedgehog signaling” Nat Chem Biol 2013, 9, 247-249).

Test [3] relates to HeLa cells. As to the kind of experiment: HeLa cell proliferation, 24-well plates, EZQuant. It is filed as cell-based. The arrangement: effect on proliferation of HeLa cells: dose or concentration left out as unconfirmed. The method, then: 24-well plate; Drugs replenished every 2 days; viable cells quantified with EZQuant; STS=Staurosporine, a positive control for cell killing. […] HeLa cells were seeded at 0.5×10^5 cells/well in 24-well plates and proliferation was assayed as described for FIG. 5. Each compound was present […].

In test [4] the test system is AsPC1 human pancreatic cancer cells. As to the kind of experiment: AsPC1 cell growth, 96-well plates, 6 days, EZQuant. The test is classed as cell-based. To be noted: 750 cells/well. As for the experimental part:
(§1) AsPC1 human pancreatic cancer cells (FIG. 5A) or T47D human breast cancer cells (FIG. 5B) were seeded at 750 cells/well in 96 well plates and grown for 6 days in the presence of the indicated concentrations of TDI-3410 or DMSO. Compounds were added on Day 0, and were replenished in the media every 2 days. Each condition was represented by duplicate wells. Cell number was quantified at Day 6 using EZQuant (Alstem).

Test [5] concerns T47D human breast cancer cells. The test can be described thus: T47D cell growth, 96-well plates, 6 days, EZQuant. The test is classed as cell-based. To be noted: 750 cells/well. As for the experimental part: as §1
The test system of test [6] is AsPC1 human pancreatic cancer cells. The test can be described thus: AsPC1 cell growth, 24-well plates, 6 days, Crystal violet staining. To be noted: ASPC1, 144 h, FIG. 2D inhibition curve. The test is classed as cell-based. The method, then: FIGS. 2A-2D show inhibition of the growth of AsPC1 cells by TDI compounds. […] Compounds were added on Day 0, and were replenished in the media every 2 days. Each condition was represented by duplicate wells. Cell number was quantified by Crystal violet staining. FIG. 2A. Growth curve. FIG. 2B. Crystal violet staining of a typical set of 6 wells. FIG. 2C. Bar graph depicting % inhibition of cell proliferation at Day 6 for each compound, compared to DMSO treated cells. % Inhibition was calculated as in FIG. 1A.

Test [7] concerns the target T1, purified Hhat (Homo sapiens, UniProt Q5VTY9).
T1 construct: HA; made in house; host or cells: 293FT cells
As to the kind of experiment: Pulldown assay: purified Hhat + 125I-palmitoyl CoA + Shh peptide. The test is classed as biochemical. To be noted: 1 hr at 20° C.; read-out: IC50, Shh palmitoylation by purified Hhat. The method, then:
FIG. 3. TDI-003410 inhibits Shh palmitoylation by purified Hhat. Pulldown assay: Purified Hhat+^125I-palmitoyl CoA+Shh peptide. […] Hhat was purified to homogeneity from 293FT cells transfected with a cDNA encoding HA-tagged Hhat, as described by Buglino and Resh (see, e.g., Buglino, J. A., and Resh, M. D. “Hhat is a palmitoyl acyltransferase with specificity for N-palmitoylation of sonic hedgehog” J. Biol. Chem. 2008, 283, 22076-22088). Purified Hhat was incubated with ^125I-Iodopalmitoyl CoA and a C-terminally biotinylated Shh peptide (representing the first 10 amino acids of mature Shh) for 1 hr at 20° C. in the presence of the indicated concentrations of TDI-3410. The reaction was quenched, and biotinylated peptides were captured on streptavidin-agarose beads by repeated centrifugation and washing. The amount of 125 radioactivity remaining in the bead pellet was determined in a g counter. % Inhibition was calculated as in FIG. 1A.

For test [8], the target named is T2, membrane-bound Hhat (Homo sapiens, UniProt Q5VTY9).
T2 construct: HA; expressed in transfected cells; host or cells: 293FT cells (P100 microsomal membranes)
The test can be described thus: Shh palmitoylation by membrane-bound Hhat (P100 membranes, SPA). The test is classed as biochemical. Conditions: 1 hr at 20° C., triplicate. The method, then: Microsomal membranes (P100) were prepared from 293FT cells transfected with a cDNA encoding HA-tagged Hhat as described (see, e.g., Buglino, J. A., and Resh, M. D. “Hhat is a palmitoyl acyltransferase with specificity for N-palmitoylation of sonic hedgehog” J. Biol. Chem. 2008, 283, 22076-22088; Petrova, E., Rios-Esteves, J., Ouerfelli, O., Glickman, J. F., and Resh, M. D. “Inhibitors of Hedgehog acyltransferase block Sonic Hedgehog signaling” Nat Chem Biol 2013, 9, 247-249). The protocol described by Petrova et al. (Nat Chem Biol 2013, 9, 247-249) was used to analyze Shh palmitoylation. Briefly, P100 membranes were incubated with ^125I-Iodopalmitoyl CoA and a C-terminally biotinylated Shh peptide in 384-well plates in the presence of the indicated concentrations of TDI-3410 for 1 hr at 20° C. Biotinylated peptides were captured on streptavidin-coated SPA (Scintillation Proximity Assay) beads and the amount of ^125I radioactivity was quantified on a Perkin-Elmer Trilux reader. Each data point represents the average of triplicate samples. % Inhibition was calculated as in FIG. 1A.

Test [9] relates to oncospheres derived from AsPC-1 human pancreatic cancer cells. As to the kind of experiment: AsPC-1 oncosphere growth, 7 days, EZQuant. To be noted: ASPC1, drug replenished every 2 days, read-out: IC50, cell proliferation of AsPC-1 oncospheres. The test is classed as cell-based. As for the experimental part:
AsPC-1 pancreatic cancer cells were grown on ultra-low attachment plates for 7-10 days in serum-free medium containing EGF, FGF, Insulin and N-2 and B-27 supplement to form oncospheres, which represent cancer stem cells. Oncosphere cultures were expanded and replated, and were used after 7 days in 2° culture. Oncospheres grown in 24-well plates were treated with TDI-3410 or vehicle; drug was replenished every 2 days. 7 days later, oncospheres were dissociated with trypsin and total viable cell number was determined using EZQuant.

SMILES strings stand for the structures. Bounds are passed on as bounds.

Chain of Hhat (Q5VTY9 whole entry): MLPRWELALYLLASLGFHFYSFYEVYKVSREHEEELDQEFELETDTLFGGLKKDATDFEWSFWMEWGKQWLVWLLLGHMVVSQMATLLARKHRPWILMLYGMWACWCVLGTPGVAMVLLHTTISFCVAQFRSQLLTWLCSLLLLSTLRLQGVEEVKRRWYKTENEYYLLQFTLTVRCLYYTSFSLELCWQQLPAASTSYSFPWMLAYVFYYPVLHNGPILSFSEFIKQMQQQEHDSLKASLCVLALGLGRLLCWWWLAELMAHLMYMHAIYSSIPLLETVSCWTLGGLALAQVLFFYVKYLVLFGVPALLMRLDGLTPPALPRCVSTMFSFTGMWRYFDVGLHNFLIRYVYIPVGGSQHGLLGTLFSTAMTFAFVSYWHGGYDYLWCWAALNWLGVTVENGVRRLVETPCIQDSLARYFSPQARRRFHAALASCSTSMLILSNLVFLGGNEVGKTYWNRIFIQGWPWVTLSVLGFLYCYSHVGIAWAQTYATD
T1 sequence (Q5VTY9 whole entry): as above
T2 sequence (Q5VTY9 whole entry): as above

For `CCC(C)CNCC(=O)N1CCc2sccc2C1COc1cccc(C)c1` (stereo not shown) [RU-SKI 43, reference compound], in [1], the “cell count of H1703 oncospheres” value is reported as “reduction in cell count with increased concentration”.
Regarding `O=C(c1ccc2nccn2c1)N1CCc2sc(Cl)cc2[C@H]1c1ccc(F)cc1` [TDI-003410], the “Hhat-mediated Shh palmitoylation” value in test [2] is “blocks Hhat-mediated Shh palmitoylation”. Moreover, the “concentration above which growth of HeLa cells is inhibited” value in test [3] (FIG. 6B) was above 20 µM. Moreover, the “effect on proliferation of HeLa cells” value in [3] (HeLa cells express no detectable Hhat) is recorded as “little to no effect”. Further, the IC50 was 28500 nM in [3] (Homo sapiens, HeLa, FIG. 6B inhibition curve, read-out: IC50, growth of HeLa cells); 2680 nM in test [6]; 1400 nM in test [1] (Homo sapiens, NCI-H1703, 240 h); 1500 nM in test [7]; 1780 nM in test [8]; 1800 nM in [9]. The “growth of AsPC1 human pancreatic cancer cells” value in test [4] is given as “inhibits the growth”. The “growth of T47D human breast cancer cells” value in test [5] is “inhibits the growth”. Moreover, the “cell count of H1703 oncospheres” value in [1] was “reduction in cell count with increased concentration”.
